19 compounds from patent publication US8735414B2 (priority 2009, dated 2014) can be followed below.

For data set [1], the system named is bicistronic HCV replicon (replicon RNA, GenBank Accession No. AJ242654). Put plainly: HCV Replicon Assay. The settings on record: Hepatitis C virus, 72 h, read-out: Replicon IC50. Type of data set: cell-based.

Usually IC50 stands for the concentration that inhibits the measured activity by half. In general, melting point refers to the temperature, or range, at which the solid turns liquid. As for `C[C@H](NS(=O)(=O)c1ccc(-c2c(C#N)c3ccc(CC(F)F)cc3n2C2CCCC2)nc1)C(F)(F)F` [compound 595, 6-[3-cyano-1-cyclopentyl-6-(2,2-difluoroethyl)-1H-indol-2-yl]-N-[(2S)-1,1,1-trifluoropropan-2-yl]pyridine-3-sulfonamide], the melting point is 181 to 189 °C. Further, the IC50 in data set [1] was under 500 nM.
Turning to `Cc1cc2c(cc1F)c(C#N)c(-c1ccc(S(=O)(=O)N[C@@H](C)C(F)(F)F)cn1)n2-c1cscn1` [compound 960, 6-[3-cyano-5-fluoro-6-methyl-1-(1,3-thiazol-4-yl)-1H-indol-2-yl]-N-[(2S)-1,1,1-trifluoropropan-2-yl]pyridine-3-sulfonamide], the melting point is 184 to 189 °C. The IC50 in data set [1] was under 500 nM.
In the same order, the values of `N#Cc1c(-c2ccc(S(=O)(=O)NC(CF)CF)cn2)n(-c2ccncc2)c2ccc(F)cc12` [compound 259, 6-[3-cyano-5-fluoro-1-(pyridin-4-yl)-1H-indol-2-yl]-N-(1,3-difluoropropan-2-yl)pyridine-3-sulfonamide] are 199 to 203 °C and under 500 nM.
The compound `CCc1cc2c(cc1F)c(C#N)c(-c1ccc(S(=O)(=O)N[C@@H](C)C(F)(F)F)cn1)n2-c1cccc(C)c1` [compound 1009, 6-[3-cyano-6-ethyl-5-fluoro-1-(3-methylphenyl)-1H-indol-2-yl]-N-[(2S)-1,1,1-trifluoropropan-2-yl]pyridine-3-sulfonamide] registered a melting point of 193 to 198 °C. Also, in data set [1], the IC50 was under 500 nM.
Consider `CCc1cc2c(cc1F)c(C(N)=O)c(-c1ccc(S(=O)(=O)N[C@@H](C)C(F)(F)F)cn1)n2-c1ccncc1` [compound 1045, 6-ethyl-5-fluoro-1-(pyridin-4-yl)-2-(5-{[(2S)-1,1,1-trifluoropropan-2-yl]sulfamoyl}pyridin-2-yl)-1H-indole-3-carboxamide], for which the melting point was 219 to 224 °C. Further, the IC50 in data set [1] is under 500 nM.
For `N#Cc1c(-c2ncc(S(=O)(=O)NC(CF)CF)cn2)n(C2CCCCC2)c2ccc(F)cc12` [compound 527, 2-(3-cyano-1-cyclohexyl-5-fluoro-1H-indol-2-yl)-N-(1,3-difluoropropan-2-yl)pyrimidine-5-sulfonamide], the melting point was 250 to 253 °C. In addition, the IC50 in data set [1] was under 500 nM.
The corresponding values for `Cc1ccc2c(c1)c(C#N)c(-c1ccc(S(=O)(=O)NC(CF)CF)cn1)n2C1CCCCC1` [compound 199, 6-(3-cyano-1-cyclohexyl-5-methyl-1H-indol-2-yl)-N-(1,3-difluoropropan-2-yl)pyridine-3-sulfonamide] are 210 to 215 °C and under 500 nM.
The corresponding values for `Cc1cc2c(cc1F)cc(-c1ccc(S(=O)(=O)N[C@@H](C)C(F)(F)F)cn1)n2-c1nccs1` [compound 903, 6-[5-fluoro-6-methyl-1-(1,3-thiazol-2-yl)-1H-indol-2-yl]-N-[(2S)-1,1,1-trifluoropropan-2-yl]pyridine-3-sulfonamide] are 224 to 230 °C and under 500 nM.
The corresponding values for `C[C@H](NS(=O)(=O)c1cnc(-c2c(C#N)c3cc(Cl)ccc3n2C2CCCC2)nc1)C(F)(F)F` [compound 419, 2-(5-chloro-3-cyano-1-cyclopentyl-1H-indol-2-yl)-N-[(2S)-1,1,1-trifluoropropan-2-yl]pyrimidine-5-sulfonamide] are 243 to 249 °C and 500 to 2000 nM.
Regarding `CC(=O)c1sccc1-n1c(-c2ccc(S(=O)(=O)N[C@@H](C)C(F)(F)F)cn2)c(C#N)c2cc(F)c(C)cc21` [compound 1055, 6-[1-(2-acetylthiophen-3-yl)-3-cyano-5-fluoro-6-methyl-1H-indol-2-yl]-N-[(2S)-1,1,1-trifluoropropan-2-yl]pyridine-3-sulfonamide], the melting point is 208.7 to 212.4 °C. Further, the IC50 in data set [1] lay within 500 to 2000 nM.
In the case of `C[C@H](NS(=O)(=O)c1cnc(-c2c(C#N)c3ccc(F)cc3n2C2CCCCC2)nc1)C1CC1` [compound 499, 2-(3-cyano-1-cyclohexyl-6-fluoro-1H-indol-2-yl)-N-[(1S)-1-cyclopropylethyl]pyrimidine-5-sulfonamide], the melting point lay in the range of 169 to 170 °C. For the same compound, the IC50 in data set [1] is under 500 nM.
`N#Cc1c(-c2ncc(S(=O)(=O)NC(CF)CF)cn2)n(C2CCC2)c2ccc(Cl)cc12` [compound 175, 2-(5-chloro-3-cyano-1-cyclobutyl-1H-indol-2-yl)-N-(1,3-difluoropropan-2-yl)pyrimidine-5-sulfonamide] returned a melting point of 210 to 212 °C. Moreover, the IC50 in data set [1] was under 500 nM.
The compound `COc1ccc2c(C#N)c(-c3ccc(S(=O)(=O)N[C@H](C)C(F)(F)F)cn3)n(C3CCCC3)c2c1` [compound 431, 6-(3-cyano-1-cyclopentyl-6-methoxy-1H-indol-2-yl)-N-[(2R)-1,1,1-trifluoropropan-2-yl]pyridine-3-sulfonamide] returned a melting point of 209 to 216 °C. In addition, in data set [1], the IC50 was under 500 nM.
The corresponding values for `Cc1cc2c(cc1F)c(C#N)c(-c1ccc(S(=O)(=O)N[C@@H](C)C(F)(F)F)cn1)n2-c1ccc(C(F)(F)F)cn1` [compound 740, 6-{3-cyano-5-fluoro-6-methyl-1-[5-(trifluoromethyl)pyridin-2-yl]-1H-indol-2-yl}-N-[(2S)-1,1,1-trifluoropropan-2-yl]pyridine-3-sulfonamide] are 253 to 255 °C and under 500 nM.
With `Cc1cc2c(cc1F)c(C(N)=O)c(-c1ccc(S(=O)(=O)NC(C)(C)C(F)(F)F)cn1)n2C1CCOCC1` [compound 768, 5-fluoro-6-methyl-1-(tetrahydro-2H-pyran-4-yl)-2-{5-[(1,1,1-trifluoro-2-methylpropan-2-yl)sulfamoyl]pyridin-2-yl}-1H-indole-3-carboxamide], the melting point was in the range of 200 to 206 °C. Further, the IC50 in data set [1] is under 500 nM.
As for `Cc1c(F)cc2c(C#N)c(-c3ccc(S(=O)(=O)NC(C)(C)C(F)(F)F)cn3)n(C3CCCC3)c2c1F` [compound 580, 6-(3-cyano-1-cyclopentyl-5,7-difluoro-6-methyl-1H-indol-2-yl)-N-(1,1,1-trifluoro-2-methylpropan-2-yl)pyridine-3-sulfonamide], the melting point lay within 226 to 232 °C. Moreover, in data set [1], the half-inhibitory concentration (IC50) is under 500 nM.
In turn, `CCc1cc2c(cc1F)c(C#N)c(-c1ccc(S(=O)(=O)NC(C)(C)C(F)(F)F)cn1)n2C1CCCC1` [compound 672, 6-(3-cyano-1-cyclopentyl-6-ethyl-5-fluoro-1H-indol-2-yl)-N-(1,1,1-trifluoro-2-methylpropan-2-yl)pyridine-3-sulfonamide] yielded a melting point of 142 to 143 °C. Moreover, the IC50 in data set [1] was under 500 nM.
Consider `CCc1cc2c(cc1F)c(C#N)c(-c1ccc(S(=O)(=O)N[C@@H](C)C(F)(F)F)cn1)n2-c1ncccc1Cl` [compound 965, 6-[1-(3-chloropyridin-2-yl)-3-cyano-6-ethyl-5-fluoro-1H-indol-2-yl]-N-[(2S)-1,1,1-trifluoropropan-2-yl]pyridine-3-sulfonamide], for which the melting point is 200 to 208 °C. The IC50 in data set [1] was under 500 nM.
Compound `C[C@H](NS(=O)(=O)c1cnc(-c2c(C#N)c3ccc(Cl)cc3n2C2CCCCC2)nc1)C(F)(F)F` [compound 516, 2-(6-chloro-3-cyano-1-cyclohexyl-1H-indol-2-yl)-N-[(2S)-1,1,1-trifluoropropan-2-yl]pyrimidine-5-sulfonamide] had a melting point of 215 to 220 °C. Moreover, the IC50 in data set [1] is under 500 nM.
